In paper PMC9000592 (Molecules, 2022):
Where two headings read alike, the source gives them in different places.

Key:
[1] = molecular target: T1, CYP3A2 (Rattus norvegicus, UniProt P05183); parameters: The pooled liver microsomes from male rats (Sprague Dawley) were purchased from Merck; tissue Merck; host or cells: pooled liver microsomes from male Sprague Dawley rats; conditions: previous study; cited from earlier work
T1 sequence (P05183 1-504): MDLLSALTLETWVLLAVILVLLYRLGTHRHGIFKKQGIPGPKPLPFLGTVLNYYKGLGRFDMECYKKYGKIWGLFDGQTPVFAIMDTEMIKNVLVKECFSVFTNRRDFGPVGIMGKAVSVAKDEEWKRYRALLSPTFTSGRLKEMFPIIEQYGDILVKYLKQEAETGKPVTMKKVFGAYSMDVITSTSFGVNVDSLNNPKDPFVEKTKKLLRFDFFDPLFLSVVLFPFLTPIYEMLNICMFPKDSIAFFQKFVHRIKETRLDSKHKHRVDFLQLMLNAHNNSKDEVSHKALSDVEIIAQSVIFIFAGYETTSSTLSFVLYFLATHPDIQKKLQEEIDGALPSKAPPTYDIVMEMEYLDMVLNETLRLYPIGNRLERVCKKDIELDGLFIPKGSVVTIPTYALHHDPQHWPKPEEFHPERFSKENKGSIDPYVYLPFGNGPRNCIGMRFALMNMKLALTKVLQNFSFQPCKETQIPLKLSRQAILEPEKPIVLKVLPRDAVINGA

[2] = molecular target: T1, CYP3A2; assay: Inhibition of CYP3A2-mediated dexamethasone 6β-hydroxylation in rat liver microsomes (HPLC); conditions: for inhibition mode of CYP3A2 enzyme activity: Lineweaver–Burk plot, rat liver microsomes; for Vmax for 6β-hydroxylase / Clint (hepatic intrinsic clearance) for 6β-hydroxylase: dexamethasone substrate
Protocol: The rates of 6β-hydroxydexamethasone formation were determined using High-Performance Liquid Chromatography (HPLC) technique.
The percentage of organic solvent in the assay was not more than 1% v/v.
The quenched reaction masses were transferred to the new vials and substrate and metabolite were double extracted with ethyl acetate (3 mL) and diethyl ether (3 mL), respectively. The organic extracts were evaporated to dryness. The mobile phase (70% acetonitrile and 30% water, v/v) was used to dissolve the residues. Then, 10 µL of the solution was injected for HPLC analysis.
Analysis of variance (ANOVA) test was also performed (at 0.05 significance level).
Schwarz criterion (SC) and Akaike information criterion (AIC) were acquired from nonlinear regression analysis. IC50 values were calculated by nonlinear regression analysis and GraphPad Prism software was used for this purpose.
The Lineweaver–Burk plot was used to assess the inhibition parameters such as Km, Vmax, and Clint.

[3] = molecular target: fatty acid amide hydrolase; conditions: hydrolysis of arachidonoylethanolamide; cited from earlier work
[4] = tested on: cytokine expression; parameters: method as in PMID 31286365; conditions: in vitro; cited from earlier work
[5] = cited from earlier work
[6] = tested on: trimethadione metabolism; conditions: short-term administration in rats; cited from earlier work
[7] = tested on: COVID-19; parameters: method as in PMID 33732750; conditions: cited from earlier work
[8] = tested on: ATPase; parameters: method as in PMID 2992525; conditions: in vitro, up to 60 min at pH 6.1 or pH 7.4; cited from earlier work
[9] = parameters: method as in PMID 29752643; conditions: several daily oral doses of omeprazole 40 mg; cited from earlier work
[10] = tested on: bufuralol 1′-hydroxylation; parameters: method as in PMID 15258107; conditions: cited from earlier work
[11] = tested on: CYP3A4; conditions: cited from earlier work
[12] = male, Sprague Dawley, rat, microsomes, pH 7.4

| SMILES | inhibition mode of CYP3A2 enzyme activity [2] | Vmax for 6β-hydroxylase ([2]; inhibitor 50 µM) | Vmax for 6β-hydroxylase ([2]; inhibitor 100 µM) | IC50 [2] | Ki [2] | inhibition of CYP3A2 at concentrations lower than 30 µM [2] | Clint (hepatic intrinsic clearance) for 6β-hydroxylase ([2]; inhibitor 30 µM) | Vmax for 6β-hydroxylase ([2]; inhibitor 30 µM) | Clint (hepatic intrinsic clearance) for 6β-hydroxylase ([2]; inhibitor 50 µM) | Clint (hepatic intrinsic clearance) for 6β-hydroxylase ([2]; inhibitor 100 µM) | further results |
| --- | --- | --- | --- | --- | --- | --- | --- | --- | --- | --- | --- |
| CC(=O)Oc1ccccc1C(=O)O [aspirin] |  |  |  |  |  |  |  |  |  |  | inhibition of CYP3A2 isoenzyme activity [1]: weak competitive inhibition |
| CC(C)Cc1ccc(C(C)C(=O)O)cc1 (stereo not drawn) [Ibuprofen, ibuprofen] | non-competitive | 0.0116 ± 0.608 × 10^−3 µM^−1∙min^−1 | 0.0099 ± 0.040 × 10^−3 µM^−1∙min^−1 |  |  |  |  |  |  |  | Vmax for 6β-hydroxylase ([2]; inhibitor 200 µM): 0.0092 ± 0.100 × 10^−3 µM^−1∙min^−1; inhibition at 40 min, 50 µM [2, 12]: 23 ± 4.34%; inhibition at 40 min, 100 µM [2, 12]: 34.73 ± 0.336%; inhibition at 40 min, 200 µM [2, 12]: 38.9 ± 0.476%; IC50 [3]: 270 µM; effect on cytokine expression [4]: no inhibitory effect; amounts found in plasma [5]: 49 to 242 µM; Cmax ([5]; read-out: peak plasma concentrations (Cmax), after two single doses of 200 mg from two different ibuprofen preparations): 110 to 150 µM; effect on trimethadione metabolism [6]: did not affect |
| C[C@@H]1C[C@H]2[C@@H]3CCC4=CC(=O)C=C[C@]4(C)[C@@]3(F)[C@@H](O)C[C@]2(C)[C@@]1(O)C(=O)CO [dexamethasone] |  |  |  |  |  |  |  |  |  |  | reduction of death rate ([7]; nonventilated patients with supplemental oxygen): 20%; reduction of death rate ([7]; ventilated intensive care unit (ICU) patients): 35% |
| COc1ccc2[nH]c([S+]([O-])Cc3ncc(C)c(OC)c3C)nc2c1 (stereo not drawn) [Omeprazole, omeprazole] | uncompetitive | 0.0062 ± 0.473 × 10^−3 µM^−1∙min^−1 | 0.0042 ± 0.058 × 10^−3 µM^−1∙min^−1 | 78.35 ± 0.46 µM | 39.18 ± 0.23 µM | No inhibition | 0.0009 ± 0.091 × 10^−3 µM^−2∙min^−1 | 0.0080 ± 0.346 × 10^−3 µM^−1∙min^−1 | 0.0010 ± 0.093 × 10^−3 µM^−2∙min^−1 | 0.0011 ± 0.066 × 10^−3 µM^−2∙min^−1 | inhibition of the ATPase activity [8]: no substantial inhibition; effect on the pharmacokinetics of roxadustat [9]: no substantial effect; IC50 [10]: > 200 µM; therapeutic plasma concentration ([5]; no reference given): 1.1 to 2.0 µM; Cmax ([5]; several daily oral doses of 40 mg): 1207 ng/mL |
| CCC(CC)COC(=O)[C@H](C)N[P@](=O)(OC[C@H]1O[C@@](C#N)(c2ccc3c(N)ncnn23)[C@H](O)[C@@H]1O)Oc1ccccc1 [Remdesivir, remdesivir] | mixed | 0.0146 ± 0.586 × 10^−3 µM^−1∙min^−1 | 0.0132 ± 0.153 × 10^−3 µM^−1∙min^−1 | 45.007 ± 0.016 µM | 22.504 ± 0.008 µM | No inhibition | 0.0006 ± 0.011 × 10^−3 µM^−2∙min^−1 | 0.0122 ± 0.306 × 10^−3 µM^−1∙min^−1 | 0.0006 ± 0.018 × 10^−3 µM^−2∙min^−1 | 0.0010 ± 0.025 × 10^−3 µM^−2∙min^−1 | plasma concentration range ([5]; after a single dose of 3–225 mg): 0.1 to 7.3 µM; inhibition of CYP3A4 [11]: weak inhibitor |
